Experimental data taken from PubChem BioAssay AID330 (DTP/NCI, 2004).
“And” between values parts separate entries of the source, which are not always exact repeats. Equal entries are not always repeated. Inconclusive results and toxic doses are left out.

Tested on: P388 leukemia ip, CD2F1 mice, survival T/C
Experiment: NCI In Vivo Anticancer Drug Screen. Data for tumor model P388 Leukemia (intraperitoneal) in CD2F1 (CDF1) mice
Details: endpoint: median survival time, higher = longer survival
How it was run: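 Mice carrying the transplanted tumor received test compound or vehicle. Survival was recorded in each group, and the value is the treated-group measurement divided by that of the vehicle-treated control group.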

[1] = dose: 100.0 mg/kg/injection, schedule: Q04DX002 (ip), vehicle: saline with Tween-80
[2] = dose: 200.0 mg/kg/injection, schedule: Q04DX002 (ip), vehicle: saline with Tween-80
[3] = dose: 400.0 mg/kg/injection, schedule: Q04DX002 (ip), vehicle: saline with Tween-80
[4] = dose: 100.0 mg/kg/injection, schedule: Q01DX009 (ip), vehicle: saline with Tween-80
[5] = dose: 200.0 mg/kg/injection, schedule: Q01DX009 (ip), vehicle: saline with Tween-80
[6] = dose: 12.5 mg/kg/injection, schedule: Q01DX009 (ip), vehicle: saline with Tween-80
[7] = dose: 25.0 mg/kg/injection, schedule: Q01DX009 (ip), vehicle: saline with Tween-80
[8] = dose: 50.0 mg/kg/injection, schedule: Q01DX009 (ip), vehicle: saline with Tween-80
[9] = dose: 100.0 mg/kg/injection, schedule: Q01DX001 (ip), vehicle: Klucel (hydroxypropylcellulose) (HPC)
[10] = dose: 200.0 mg/kg/injection, schedule: Q01DX001 (ip), vehicle: Klucel (hydroxypropylcellulose) (HPC)
[11] = dose: 400.0 mg/kg/injection, schedule: Q01DX001 (ip), vehicle: Klucel (hydroxypropylcellulose) (HPC)
[12] = dose: 50.0 mg/kg/injection, schedule: Q01DX009 (ip), vehicle: saline
[13] = dose: 100.0 mg/kg/injection, schedule: Q01DX009 (ip), vehicle: saline
[14] = dose: 200.0 mg/kg/injection, schedule: Q01DX009 (ip), vehicle: saline
[15] = dose: 12.5 mg/kg/injection, schedule: Q01DX009 (ip), vehicle: saline
[16] = dose: 25.0 mg/kg/injection, schedule: Q01DX009 (ip), vehicle: saline

With `NC(CCSCNc1ncnc2c1ncn2C1OC(CO)C(O)C1O)C(=O)O` (centres undefined) as the molecule, how does the T/C [1] read?
The T/C was 97 % of control.

What about the T/C [2] of the same molecule?
The T/C was 93 % of control.

And the T/C [3]?
Its T/C is 93 % of control.

What does the source list for `COc1ccc(OC(=O)CCCl)cc1`?
T/C [4]: 113 % of control; T/C [5]: 108 % of control; T/C (dose: 400.0 mg/kg/injection, schedule: Q01DX009 (ip), vehicle: saline with Tween-80): 104 % of control

Which T/C (dose: 50.0 mg/kg/injection, schedule: Q01DX005 (ip), vehicle: saline with Tween-80) does the source give for `O=C1C2C3C=CC(O3)C2C(=O)N1/N=C\C(O)C(O)C(O)C(O)CO` (centres undefined) here?
Its T/C is 97 % of control.

What about the T/C (dose: 100.0 mg/kg/injection, schedule: Q01DX005 (ip), vehicle: saline with Tween-80) of the same molecule?
Its T/C is 98 % of control.

What about the T/C (dose: 200.0 mg/kg/injection, schedule: Q01DX005 (ip), vehicle: saline with Tween-80) of the same molecule?
The T/C was 95 % of control.

`COC(=O)C1Cc2c([nH]c3ccccc23)C2CCC(=O)N12` (centres undefined) was tested. Which T/C (dose: 50.0 mg/kg/injection, schedule: Q01DX009 (ip), vehicle: Klucel (hydroxypropylcellulose) (HPC)) did it give?
The T/C was 108 % of control.

What about the T/C (dose: 100.0 mg/kg/injection, schedule: Q01DX009 (ip), vehicle: Klucel (hydroxypropylcellulose) (HPC)) of the same molecule?
Its T/C is 100 % of control.

What about the T/C (dose: 200.0 mg/kg/injection, schedule: Q01DX009 (ip), vehicle: Klucel (hydroxypropylcellulose) (HPC)) of the same molecule?
The T/C was 104 % of control.

For `CCS(=O)(=O)Nc1cccc(Nc2c3cccc(C)c3nc3c(C)cccc23)c1OC`, which T/C (dose: 0.7 mg/kg/injection, schedule: Q01DX009 (ip), vehicle: saline with Tween-80) is on record?
The T/C was 121 % of control.

And the T/C (dose: 5.5 mg/kg/injection, schedule: Q01DX009 (ip), vehicle: saline with Tween-80)?
The T/C was 157 % of control.

And the T/C (dose: 6.25 mg/kg/injection, schedule: Q01DX009 (ip), vehicle: saline with Tween-80)?
Its T/C is 171 % of control.

What about the T/C (dose: 11.0 mg/kg/injection, schedule: Q01DX009 (ip), vehicle: saline with Tween-80) of the same molecule?
The T/C was 172 % of control and 217 % of control.

What about the T/C [6] of the same molecule?
The T/C was 177 % of control.

And the T/C (dose: 16.7 mg/kg/injection, schedule: Q01DX009 (ip), vehicle: saline with Tween-80)?
Its T/C is 220 % of control.

And the T/C [7]?
The T/C was 155 % of control and 266 % of control.

And the T/C (dose: 37.5 mg/kg/injection, schedule: Q01DX009 (ip), vehicle: saline with Tween-80)?
The T/C was 86 % of control.

And the T/C [8]?
The T/C was 91 % of control.

`Cn1nc(C(N)=O)c2c(N)ncnc21` was tested. Which T/C (dose: 0.94 mg/kg/injection, schedule: Q01DX005 (ip), vehicle: saline with Tween-80) did it give?
The T/C was 105 % of control.

What about the T/C (dose: 1.88 mg/kg/injection, schedule: Q01DX005 (ip), vehicle: saline with Tween-80) of the same molecule?
The T/C was 92 % of control.

And the T/C (dose: 3.75 mg/kg/injection, schedule: Q01DX005 (ip), vehicle: saline with Tween-80)?
The T/C was 104 % of control.

And the T/C (dose: 7.5 mg/kg/injection, schedule: Q01DX005 (ip), vehicle: saline with Tween-80)?
The T/C was 91 % of control.

For `O=Cc1c(Br)n(-c2ccccc2)c2ccccc12`, which T/C [9] is on record?
The T/C was 102 % of control.

What about the T/C [10] of the same molecule?
The T/C was 100 % of control.

What about the T/C [11] of the same molecule?
Its T/C is 100 % of control.

For `Cc1cc(NCCCN(C)C)c2cc3ccc4cccc5ccc(c2n1)c3c45`, which T/C [8] is on record?
Its T/C is 109 % of control.

What about the T/C [4] of the same molecule?
The T/C was 108 % of control.

With `CC(=O)NC(C(=O)O)C(C)(C)SN=O` (centres undefined) as the molecule, how does the T/C [8] read?
The T/C was 93 % of control.

What about the T/C [4] of the same molecule?
Its T/C is 98 % of control.

And the T/C [5]?
The T/C was 95 % of control.

Which results are given for `c1ccc(C2=NN(c3ccccc3)C3C4CCC(C4)C23)cc1` (centres undefined)?
T/C (dose: 100.0 mg/kg/injection, schedule: Q04DX003 (ip), vehicle: Klucel (hydroxypropylcellulose) (HPC)): 93 % of control; T/C (dose: 200.0 mg/kg/injection, schedule: Q04DX003 (ip), vehicle: Klucel (hydroxypropylcellulose) (HPC)): 93 % of control; T/C (dose: 400.0 mg/kg/injection, schedule: Q04DX003 (ip), vehicle: Klucel (hydroxypropylcellulose) (HPC)): 91 % of control

Which results are given for `CCOC(=O)C[N+]12CCC34c5ccccc5N5C(=O)CC6OCC=C(C1)C(CC32)C6C54` (centres undefined)?
T/C [6]: 113 % of control; T/C [7]: 106 % of control

For `Cn1nc(-c2cccnc2)[n+]([O-])c2c(=O)n(C)c(=O)nc1-2`, which T/C (dose: 45.0 mg/kg/injection, schedule: Q01DX009 (ip), vehicle: saline with Tween-80) is on record?
Its T/C is 100 % of control.

And the T/C (dose: 90.0 mg/kg/injection, schedule: Q01DX009 (ip), vehicle: saline with Tween-80)?
The T/C was 109 % of control.

And the T/C (dose: 180.0 mg/kg/injection, schedule: Q01DX009 (ip), vehicle: saline with Tween-80)?
The T/C was 112 % of control.

What does the source list for `CCC/C(=N\NC(N)=NC)c1ccc(Cl)cc1`?
T/C (dose: 25.0 mg/kg/injection, schedule: Q04DX002 (ip), vehicle: saline): 102 % of control; T/C (dose: 50.0 mg/kg/injection, schedule: Q04DX002 (ip), vehicle: saline): 93 % of control

What does the source list for `C=C1C(=O)OC2C1CCC1(C)CC(Br)C(=O)C(C)C21` (centres undefined)?
T/C (dose: 50.0 mg/kg/injection, schedule: Q04DX002 (ip), vehicle: saline with Tween-80): 104 % of control and 108 % of control and 95 % of control; T/C [1]: 100 % of control and 111 % of control and 112 % of control; T/C [2]: 106 % of control and 108 % of control; T/C [3]: 104 % of control

Which T/C (dose: 6.25 mg/kg/injection, schedule: Q04DX003 (ip), vehicle: other) does the source give for `Cc1cc2ccccc2c2c(C)c3cccc[n+]3cc12` here?
Its T/C is 114 % of control.

And the T/C (dose: 12.5 mg/kg/injection, schedule: Q04DX003 (ip), vehicle: other)?
The T/C was 110 % of control.

And the T/C (dose: 25.0 mg/kg/injection, schedule: Q04DX003 (ip), vehicle: other)?
The T/C was 110 % of control.

What does the source list for `OC1(c2ccccc2)CCN(c2c3ccccc3nc3ccccc23)CC1`?
T/C (dose: 100.0 mg/kg/injection, schedule: Q04DX002 (ip), vehicle: Klucel (hydroxypropylcellulose) (HPC)): 118 % of control; T/C (dose: 200.0 mg/kg/injection, schedule: Q04DX002 (ip), vehicle: Klucel (hydroxypropylcellulose) (HPC)): 119 % of control

How did the T/C [12] turn out when `C=CC(=O)NC(C)(C)C(=O)O` was run?
The T/C was 99 % of control.

What about the T/C [13] of the same molecule?
Its T/C is 97 % of control.

What about the T/C [14] of the same molecule?
The T/C was 99 % of control.

For `N#Cc1ccc(N(O)C(=O)c2ccccc2)cc1`, which T/C [6] is on record?
The T/C was 99 % of control.

What about the T/C [7] of the same molecule?
Its T/C is 100 % of control.

What about the T/C [8] of the same molecule?
Its T/C is 99 % of control and 100 % of control.

Which results are given for `COc1nc2[nH]ccc2c(=O)[nH]1`?
T/C (dose: 60.0 mg/kg/injection, schedule: Q01DX005 (ip), vehicle: saline with Tween-80): 94 % of control; T/C (dose: 120.0 mg/kg/injection, schedule: Q01DX005 (ip), vehicle: saline with Tween-80): 86 % of control; T/C (dose: 240.0 mg/kg/injection, schedule: Q01DX005 (ip), vehicle: saline with Tween-80): 96 % of control

Which results are given for `CCOC(=O)c1ccccn1`?
T/C [15]: 95 % of control; T/C [16]: 98 % of control; T/C [12]: 101 % of control; T/C [13]: 100 % of control

What does the source list for `Cc1ccccc1OC(=O)Nc1ccc(C(=O)O)c(O)c1`?
T/C (dose: 100.0 mg/kg/injection, schedule: Q01DX001 (ip), vehicle: saline with Tween-80): 95 % of control; T/C (dose: 200.0 mg/kg/injection, schedule: Q01DX001 (ip), vehicle: saline with Tween-80): 109 % of control

What does the source list for `N#CC1(C#N)C2C=CC(C3CCC=C32)C1(C#N)C#N` (centres undefined)?
T/C (dose: 6.25 mg/kg/injection, schedule: Q01DX009 (ip), vehicle: Klucel (hydroxypropylcellulose) (HPC)): 100 % of control; T/C (dose: 12.5 mg/kg/injection, schedule: Q01DX009 (ip), vehicle: Klucel (hydroxypropylcellulose) (HPC)): 110 % of control; T/C (dose: 25.0 mg/kg/injection, schedule: Q01DX009 (ip), vehicle: Klucel (hydroxypropylcellulose) (HPC)): 106 % of control

`CC(N)C(=O)NC(CC(=O)O)C(=O)O` (centres undefined) was tested. Which T/C [15] did it give?
Its T/C is 95 % of control.

And the T/C [16]?
The T/C was 86 % of control.

And the T/C [12]?
The T/C was 90 % of control.

And the T/C [13]?
Its T/C is 94 % of control.

And the T/C [14]?
Its T/C is 92 % of control.

How did the T/C [6] turn out when `CN(C)C=Nc1cc(Cl)c(Cl)cc1Cl` was run?
Its T/C is 108 % of control.

And the T/C [7]?
Its T/C is 106 % of control.

And the T/C [8]?
Its T/C is 106 % of control.

Which results are given for `CCOC(=O)CCN(CC)CC`?
T/C (dose: 88.0 mg/kg/injection, schedule: Q04DX003 (ip), vehicle: saline): 100 % of control; T/C [13]: 116 % of control; T/C (dose: 132.0 mg/kg/injection, schedule: Q04DX003 (ip), vehicle: saline): 95 % of control; T/C [14]: 111 % of control; T/C (dose: 200.0 mg/kg/injection, schedule: Q04DX003 (ip), vehicle: saline): 109 % of control; T/C (dose: 300.0 mg/kg/injection, schedule: Q04DX003 (ip), vehicle: saline): 109 % of control; T/C (dose: 400.0 mg/kg/injection, schedule: Q01DX009 (ip), vehicle: saline): 111 % of control; T/C (dose: 400.0 mg/kg/injection, schedule: Q04DX003 (ip), vehicle: saline): 100 % of control

With `O=C1OCCOCCSCCOCCOC(=O)c2cncc1c2` as the molecule, how does the T/C [9] read?
Its T/C is 104 % of control.

And the T/C [10]?
Its T/C is 104 % of control.

And the T/C [11]?
The T/C was 101 % of control.
